Source: PubChem BioAssay AID2060503 (Molecular Pharmacology Branch, DTP, NCI, 2025)

Tested on: 817829-284-R-J1-PDC complex spheroids, viability
Assay: Anticancer human tumor 817829-284-R-J1-PDC patient-derived colon adenocarcinoma cell line growth inhibition [GQUAD]
Conditions: for IC50: curve of first compound; for viability, T/C: stronger effect = lower value; active = viability on the fitted dose curve at most 10% of control; inactive = the rest
Summary of the method: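 Tumor cells were grown as complex spheroids with HUVEC endothelial cells and mesenchymal stem cells as stroma. G-quadruplex stabilizers were combined with targeted agents over half-log dilutions from near the clinical Cmax, or from 10 microM.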

[1] = second compound 0.0316 µM, first compound 0.0316 µM
[2] = second compound 0.0316 µM, first compound 0.1 µM
[3] = second compound 0.0316 µM, first compound 0.316 µM
[4] = second compound 0.0316 µM, first compound 1 µM
[5] = second compound 0.0316 µM, first compound 3.16 µM
[6] = second compound 0.0316 µM, first compound 10 µM
[7] = second compound 0.1 µM, first compound 0.0316 µM
[8] = second compound 0.1 µM, first compound 0.1 µM
[9] = second compound 0.1 µM, first compound 0.316 µM
[10] = second compound 0.1 µM, first compound 1 µM
[11] = second compound 0.1 µM, first compound 3.16 µM
[12] = second compound 0.1 µM, first compound 10 µM
[13] = second compound 0.316 µM, first compound 0.0316 µM
[14] = second compound 0.316 µM, first compound 0.1 µM
[15] = second compound 0.316 µM, first compound 0.316 µM
[16] = second compound 0.316 µM, first compound 1 µM
[17] = second compound 0.316 µM, first compound 3.16 µM
[18] = second compound 0.316 µM, first compound 10 µM
[19] = second compound 1 µM, first compound 0.0316 µM
[20] = second compound 1 µM, first compound 0.1 µM
[21] = second compound 1 µM, first compound 0.316 µM
[22] = second compound 1 µM, first compound 1 µM
[23] = second compound 1 µM, first compound 3.16 µM
[24] = second compound 1 µM, first compound 10 µM
[25] = second compound 3.16 µM, first compound 0.0316 µM
[26] = second compound 3.16 µM, first compound 0.1 µM
[27] = second compound 3.16 µM, first compound 0.316 µM
[28] = second compound 3.16 µM, first compound 1 µM
[29] = second compound 3.16 µM, first compound 3.16 µM
[30] = second compound 3.16 µM, first compound 10 µM
[31] = second compound 10 µM, first compound 0.0316 µM
[32] = second compound 10 µM, first compound 0.1 µM
[33] = second compound 10 µM, first compound 0.316 µM
[34] = second compound 10 µM, first compound 1 µM
[35] = second compound 10 µM, first compound 3.16 µM
[36] = second compound 10 µM, first compound 10 µM
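Note: spheroids exposed to agents for 7 days before readout.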
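Throughout, for viability, T/C: percent viability relative to DMSO vehicle control taken as 100%.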

Nc1ccn(C2OC(CO)C(O)C2(F)F)c(=O)n1 (centres undefined) + CN(C)c1ccc(Nc2c3ccc(NC(=O)CCN4CCCC4)cc3nc3cc(NC(=O)CCN4CCCC4)ccc23)cc1
inactive: viability, T/C [1] 11.1% | viability, T/C [7] 11.5% | viability, T/C [13] 10.2% | viability, T/C [19] 10.5% | viability, T/C [31] 10.7%
active: viability, T/C [2] 6.76% | viability, T/C [3] 7.53% | viability, T/C [4] 6.63% | viability, T/C [5] 5.22% | viability, T/C [6] 3.38% | viability, T/C [8] 7.05% | viability, T/C [9] 7.75% | viability, T/C [10] 7.5% | viability, T/C [11] 5.74% | viability, T/C [12] 4.58% | viability, T/C [14] 7.22% | viability, T/C [15] 7.51% | viability, T/C [16] 6.86% | viability, T/C [17] 5.17% | viability, T/C [18] 3.32% | viability, T/C [20] 5.85% | viability, T/C [21] 7.62% | viability, T/C [22] 8.41% | viability, T/C [23] 6.53% | viability, T/C [24] 3.73% | viability, T/C [25] 8.54% | viability, T/C [26] 7.05% | viability, T/C [27] 8.46% | viability, T/C [28] 8.5% | viability, T/C [29] 6.92% | viability, T/C [30] 3.39% | viability, T/C [32] 9.04% | viability, T/C [33] 8.83% | viability, T/C [34] 8.64% | viability, T/C [35] 6.59% | viability, T/C [36] 4.48%
< 0.0316 µM: IC50 (second compound 0.0316 µM) | IC50 (second compound 0.1 µM) | IC50 (second compound 0.316 µM) | IC50 (second compound 1 µM) | IC50 (second compound 3.16 µM) | IC50 (second compound 10 µM)

O=c1[nH]cc(F)c(=O)[nH]1 + CN(C)c1ccc(Nc2c3ccc(NC(=O)CCN4CCCC4)cc3nc3cc(NC(=O)CCN4CCCC4)ccc23)cc1
2.7 µM: IC50 (second compound 1 µM)
2.4 µM: IC50 (second compound 0.316 µM)
2.45 µM: IC50 (second compound 0.1 µM)
2.69 µM: IC50 (second compound 10 µM)
2.12 µM: IC50 (second compound 0.0316 µM)
inactive: viability, T/C [1] 112% | viability, T/C [2] 104% | viability, T/C [3] 119% | viability, T/C [4] 73.4% | viability, T/C [5] 44.2% | viability, T/C [6] 30.7% | viability, T/C [7] 101% | viability, T/C [8] 102% | viability, T/C [9] 94.3% | viability, T/C [10] 84.3% | viability, T/C [11] 39.9% | viability, T/C [12] 29.3% | viability, T/C [13] 102% | viability, T/C [14] 106% | viability, T/C [15] 97.1% | viability, T/C [16] 78.7% | viability, T/C [17] 40.7% | viability, T/C [18] 29.6% | viability, T/C [19] 99.5% | viability, T/C [20] 101% | viability, T/C [21] 108% | viability, T/C [22] 83% | viability, T/C [23] 45.7% | viability, T/C [24] 31.6% | viability, T/C [25] 91.2% | viability, T/C [26] 96.7% | viability, T/C [27] 102% | viability, T/C [28] 74.1% | viability, T/C [29] 45.4% | viability, T/C [30] 29% | viability, T/C [31] 102% | viability, T/C [32] 95.9% | viability, T/C [33] 100% | viability, T/C [34] 80.5% | viability, T/C [35] 45.3% | viability, T/C [36] 31.9%
2.51 µM: IC50 (second compound 3.16 µM)
